One assay concerns ducksalad. Nature of the assay: Test C flooded paddy test. Type of assay: in vivo, Heteranthera limosa. To be noted: Flood, scale 0 to 100 (0 no effect, 100 complete control), 13 to 15 days. Summed up:
(§1)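 Ratings were visual and made relative to untreated controls after 13 to 15 greenhouse days.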

In a further assay the test system is lambsquarters. Nature of the assay: Test D preemergence. Type of assay: in vivo, Chenopodium album. Particulars: for pest or weed control at 16 g/ha / pest or weed control at 31 g/ha / pest or weed control at 62 g/ha / pest or weed control at 125 g/ha / pest or weed control at 250 g/ha: Chenopodium album, pre-emergence; for pest or weed control at 16 g/ha: read-out: Plant response rating, Lambsquarters; for pest or weed control at 31 g/ha / pest or weed control at 62 g/ha / pest or weed control at 125 g/ha / pest or weed control at 250 g/ha: scale 0-100, read-out: Plant response rating, Lambsquarters. The essentials: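 Species were sown in silt loam for preemergence treatment, or grown in peat-based medium to the 1–4-leaf stage (2–18 cm) for postemergence sprays. Test chemicals were formulated in a non-phytotoxic solvent mixture with surfactant. After 7–21 days in a controlled environment, plants were rated visually against controls on a 0 (no effect) to 100 (complete control) scale.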

The next assay relates to barnyardgrass. Nature of the assay: Test C flooded paddy test. Type of assay: in vivo, Echinochloa crus-galli. To be noted: Flood, scale 0 to 100 (0 no effect, 100 complete control), 13 to 15 days. Summed up: as §1
The subject of another assay is wild poinsettia. Nature of the assay: Test E preemergence. Type of assay: in vivo, Euphorbia heterophylla. Particulars: for Poinsettia, Wild plant response rating: scale 0 to 100 (0 no effect, 100 complete control). The essentials:
(§2)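 Compound in a non-phytotoxic solvent mixture with surfactant was applied preemergence to seeds in silt loam soil, or postemergence to plants 2 to 18 cm tall grown in peat-based potting medium. Plants were kept in a greenhouse for 14 to 21 days, then rated visually against untreated controls on a 0 (no effect) to 100 (complete control) scale.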

Another assay has as its system green foxtail. Nature of the assay: Test E preemergence. To be noted: for Foxtail, Green plant response rating: scale 0 to 100 (0 no effect, 100 complete control). In kind it is in vivo, Setaria viridis. The essentials:
as §2

Another assay relates to dayflower. Nature of the assay: Test E preemergence. Type of assay: in vivo, Commelina virginica. To be noted: for Dayflower, VA plant response rating: scale 0 to 100 (0 no effect, 100 complete control). Summed up: as §2
The next assay has as its system Italian ryegrass. Nature of the assay: Test A postemergence. In kind it is in vivo, Lolium multiflorum. The essentials:
(§3)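 Compounds in non-phytotoxic solvent with surfactant applied as soil spray preemergence, or postemergence to plants 2-10 cm at one- to two-leaf stage, in loam/sand. After approximately 10 days in greenhouse, injury rated visually versus untreated controls, 0 (no effect) to 100 (complete control).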

Another assay has as its system galium. Nature of the assay: Test A postemergence. In kind it is in vivo, Galium aparine. The essentials:
as §3

The next assay concerns ragweed. Nature of the assay: Test A preemergence. Type of assay: in vivo, Ambrosia elatior. Particulars: for Ragweed plant response rating: 500 g ai/ha. The essentials:
as §3

[1] abbreviates: 16 g ai/ha, scale 0 (no effect) to 100 (complete control).
The mark [2] stands for this setting: 8 g ai/ha, scale 0 to 100, 0 is no effect, 100 is complete control.
[3] abbreviates: 125 g ai/ha, scale 0 to 100, 0 no effect, 100 complete control.
Setting [4] is: 250 g ai/ha, scale 0 to 100, 0 no effect, 100 complete control.
Setting [5] is: 125 g ai/ha, 0 to 100 scale where 0 is no effect and 100 is complete control.
The mark [6] stands for this setting: 500 g ai/ha, 0 to 100 scale where 0 is no effect and 100 is complete control.
[7] abbreviates: 0 to 100 scale where 0 is no effect and 100 is complete control.
[8] abbreviates: 125 g ai/ha, 0 to 100 scale, 0 no effect, 100 complete control.

In the case of `Clc1cnc(Oc2ccccc2-n2cc(Cl)cn2)nc1` [Compound 3], the “Plant response rating, Ducksalad” value in the assay on ducksalad (31 g ai/ha) is recorded as 0; in the assay on ducksalad (62 g ai/ha) it was 50; with ducksalad (125 g ai/ha), 70; with ducksalad (250 g ai/ha), 85. Also, the “Plant response rating, Lambsquarters” value with lambsquarters (setting [1]) is 0; in the assay on lambsquarters (31 g ai/ha, scale 0-100), 0; in the assay on lambsquarters (62 g ai/ha, scale 0-100), 0; in the assay with lambsquarters (125 g ai/ha, scale 0-100), 25; with lambsquarters (250 g ai/ha, scale 0-100), 50. Further, the “Plant response rating, Barnyardgrass” value with barnyardgrass (31 g ai/ha), in the assay with barnyardgrass (62 g ai/ha), in the assay with barnyardgrass (125 g ai/ha) and with barnyardgrass (250 g ai/ha) was 0 throughout.

Regarding `Clc1cnc(Oc2ccccc2-n2cc(Br)cn2)nc1` [Compound 7, 2-[2-(4-bromo-1H-pyrazol-1-yl)phenoxy]-5-chloropyrimidine], in the assay with lambsquarters (setting [1]), the pest or weed control at 16 g/ha worked out at 0%. In addition, the pest or weed control at 31 g/ha in the assay on lambsquarters (31 g ai/ha) was 0%. In addition, in the assay on lambsquarters (62 g ai/ha), the pest or weed control at 62 g/ha stood at 30%. In addition, the pest or weed control at 125 g/ha in the assay with lambsquarters (125 g ai/ha) turned out to be 40%. The pest or weed control at 250 g/ha in the assay with lambsquarters (250 g ai/ha) stood at 60%. Besides, the “Plant response rating, Poinsettia, Wild” value in the assay with wild poinsettia (setting [2]) and in the assay on wild poinsettia (setting [3]) was 0 each time. The “Poinsettia, Wild plant response rating” value in the assay with wild poinsettia (16 g ai/ha) and in the assay on wild poinsettia (31 g ai/ha) was 0 throughout. Further, the “Plant response rating, Foxtail, Green” value is listed as 0 in the assay on green foxtail (setting [2]) and 75 with green foxtail (setting [3]). Moreover, the “Foxtail, Green plant response rating” value came to 0 in the assay on green foxtail (16 g ai/ha), 30 in the assay on green foxtail (31 g ai/ha) and 35 in the assay on green foxtail (62 g ai/ha). Besides, the “Plant response rating, Dayflower, VA” value with dayflower (setting [2]) amounted to 0; in the assay with dayflower (setting [3]), 65. The “Dayflower, VA plant response rating” value in the assay on dayflower (16 g ai/ha) came to 0; with dayflower (31 g ai/ha), 0; in the assay with dayflower (62 g ai/ha), 20.

With `FC(F)(F)c1cnn(-c2ccccc2Oc2ncc(Br)cn2)c1` [Compound 18, 5-bromo-2-[2-[4-(trifluoromethyl)-1H-pyrazol-1-yl]phenoxy]pyrimidine], the “Plant response rating, Ducksalad” value in the assay with ducksalad (31 g ai/ha) came to 80; in the assay with ducksalad (62 g ai/ha), 80; with ducksalad (125 g ai/ha), 85; in the assay on ducksalad (250 g ai/ha), 90. The pest or weed control at 16 g/ha with lambsquarters (setting [1]) worked out at 70%. In addition, the pest or weed control at 31 g/ha in the assay on lambsquarters (31 g ai/ha) is 80%. Moreover, the pest or weed control at 62 g/ha in the assay on lambsquarters (62 g ai/ha) amounted to 100%. In the assay with lambsquarters (125 g ai/ha), the pest or weed control at 125 g/ha was found to be 100%. Besides, the pest or weed control at 250 g/ha with lambsquarters (250 g ai/ha) was 100%. For the same molecule, the “Poinsettia, Wild plant response rating” value in the assay with wild poinsettia (16 g ai/ha), with wild poinsettia (31 g ai/ha) and in the assay on wild poinsettia (62 g ai/ha) was 0 each time. Also, the “Plant response rating, Poinsettia, Wild” value in the assay on wild poinsettia (setting [3]) came out at 0; with wild poinsettia (setting [4]), 50. The “Plant response rating, Barnyardgrass” value is 0 in the assay on barnyardgrass (31 g ai/ha), 0 in the assay with barnyardgrass (62 g ai/ha), 10 with barnyardgrass (125 g ai/ha) and 20 in the assay on barnyardgrass (250 g ai/ha). Further, the “Foxtail, Green plant response rating” value in the assay on green foxtail (16 g ai/ha) turned out to be 0; with green foxtail (31 g ai/ha), 0; in the assay on green foxtail (62 g ai/ha) it was 65. For the same molecule, the “Plant response rating, Foxtail, Green” value with green foxtail (setting [3]) and in the assay on green foxtail (setting [4]) was 100 in each case. Further, the “Dayflower, VA plant response rating” value was 0 with dayflower (16 g ai/ha), 0 with dayflower (31 g ai/ha) and 35 in the assay with dayflower (62 g ai/ha). Further, the “Plant response rating, Dayflower, VA” value was 95 in the assay on dayflower (setting [3]) and 98 in the assay with dayflower (setting [4]).

For `N#Cc1cccc(Oc2ncc(Cl)cn2)c1-n1cc(C(F)(F)F)cn1` [Compound 58, 3-[(5-chloro-2-pyrimidinyl)oxy]-2-[4-(trifluoromethyl)-1H-pyrazol-1-yl]benzonitrile], in the assay with lambsquarters (31 g ai/ha), the pest or weed control at 31 g/ha is 100%. The pest or weed control at 62 g/ha with lambsquarters (62 g ai/ha) turned out to be 100%. For the same molecule, the pest or weed control at 125 g/ha in the assay on lambsquarters (125 g ai/ha) turned out to be 100%. Moreover, the pest or weed control at 250 g/ha in the assay with lambsquarters (250 g ai/ha) was 100%. Also, the “Poinsettia, Wild plant response rating” value turned out to be 5 in the assay on wild poinsettia (16 g ai/ha), 15 with wild poinsettia (31 g ai/ha) and 90 with wild poinsettia (62 g ai/ha). The “Plant response rating, Poinsettia, Wild” value in the assay with wild poinsettia (setting [3]) and in the assay on wild poinsettia (setting [4]) was 100 throughout. Further, the “Foxtail, Green plant response rating” value with green foxtail (16 g ai/ha) amounted to 65; in the assay on green foxtail (31 g ai/ha), 95; in the assay with green foxtail (62 g ai/ha), 100. Moreover, the “Plant response rating, Foxtail, Green” value with green foxtail (setting [3]) and in the assay on green foxtail (setting [4]) was 100 throughout. The entries for the “Dayflower, VA plant response rating” value in the assay on dayflower (16 g ai/ha), with dayflower (31 g ai/ha) and in the assay on dayflower (62 g ai/ha) were 5, 20 and 70, respectively. Moreover, the “Plant response rating, Dayflower, VA” value in the assay on dayflower (setting [3]) and in the assay on dayflower (setting [4]) was 98 throughout.

Take `FC(F)(F)COc1cnn(-c2ccccc2Oc2ncc(Cl)cn2)c1` [Compound 138, 5-chloro-2-[2-[4-(2,2,2-trifluoroethoxy)-1H-pyrazol-1-yl]phenoxy]pyrimidine]: the pest or weed control at 16 g/ha in the assay on lambsquarters (setting [1]) came to 45%. Moreover, the pest or weed control at 31 g/ha in the assay with lambsquarters (31 g ai/ha) was 10%. The pest or weed control at 62 g/ha in the assay on lambsquarters (62 g ai/ha) was found to be 60%. In addition, in the assay on lambsquarters (125 g ai/ha), the pest or weed control at 125 g/ha is 100%. Moreover, the “Ryegrass, Italian plant response rating” value in the assay with Italian ryegrass (setting [5]) was found to be 40. In addition, the “Plant response rating, Ryegrass, Italian” value in the assay on Italian ryegrass (setting [6]) was 90. Further, the “Poinsettia, Wild plant response rating” value in the assay on wild poinsettia (16 g ai/ha) is reported as 0; in the assay on wild poinsettia (31 g ai/ha), 25; with wild poinsettia (62 g ai/ha), 35. Besides, the “Plant response rating, Poinsettia, Wild” value in the assay with wild poinsettia (setting [3]) stood at 25. For the same molecule, the “Galium plant response rating” value in the assay on galium (setting [5]) was determined as 90. Moreover, in the assay on galium (setting [6]), the “Plant response rating, Galium” value is 100. In addition, the “Foxtail, Green plant response rating” value came to 0 in the assay with green foxtail (16 g ai/ha), 0 in the assay on green foxtail (31 g ai/ha) and 20 in the assay with green foxtail (62 g ai/ha). In addition, in the assay on green foxtail (setting [3]), the “Plant response rating, Foxtail, Green” value is 98. For the same molecule, the results for the “Dayflower, VA plant response rating” value with dayflower (16 g ai/ha), in the assay with dayflower (31 g ai/ha) and in the assay with dayflower (62 g ai/ha) were 0, 5 and 30, respectively. In addition, in the assay with dayflower (setting [3]), the “Plant response rating, Dayflower, VA” value amounted to 40. Moreover, the “Plant response rating, Ragweed” value in the assay with ragweed (setting [5]) is reported as 30. For the same molecule, in the assay on ragweed (setting [7]), the “Ragweed plant response rating” value came to 60.

On to `N#Cc1cccc(Oc2ncc(Cl)cn2)c1-n1cc(-n2ccc(C(F)(F)F)n2)cn1` [Compound 284], for which the “Plant response rating, Lambsquarters” value with lambsquarters (31 g ai/ha, scale 0 (no effect) to 100 (complete control)) came to 30; with lambsquarters (62 g ai/ha, scale 0-100), 100; in the assay on lambsquarters (125 g ai/ha, scale 0-100) it was 100; in the assay with lambsquarters (250 g ai/ha, scale 0-100), 100. The “Plant response rating, Ryegrass, Italian” value is reported as 20 with Italian ryegrass (setting [8]) and 60 in the assay on Italian ryegrass (setting [6]). Besides, the “Plant response rating, Galium” value in the assay with galium (setting [8]) was 20; in the assay with galium (setting [6]), 60. In the assay on ragweed (125 g ai/ha), the “Ragweed plant response rating (0 to 100 scale)” value is given as 0. For the same molecule, the “Ragweed plant response rating” value with ragweed (setting [7]) is 0.

The values are drawn from patent US9695155B2, “Herbicidal substituted pyrimidinyloxy benzene compounds” (E. I. DU PONT DE NEMOURS AND COMPANY, priority 2013, dated 2017).
